Measurements from ChEMBL document CHEMBL4507311, “Data for DCP probe A-1155463” (2021).

Key:
[1] = biological target: Apoptosis regulator Bcl-2 (Homo sapiens, UniProt P10415); assay: Time-resolved fluorescence energy transfer (TR-FRET) with BCL2
[2] = biological target: Prostaglandin G/H synthase 1 (Homo sapiens) (UniProt P23219); assay: COX1(h) Eurofins-Cerep enzyme and uptake assay; settings: Compound concentration 10.0 uM
[3] = biological target: cGMP-inhibited 3',5'-cyclic phosphodiesterase 3A (Homo sapiens) (UniProt Q14432); assay: PDE3A (h) Eurofins-Cerep enzyme and uptake assay; settings: Compound concentration 10.0 uM
[4] = biological target: MAO-B (amine oxidase [flavin-containing] B) (Homo sapiens, UniProt P27338); assay: MAO-B (h) recombinant enzyme Eurofins-Cerep enzyme and uptake assay; design: incubation time 60 min, incubation temperature 37°C, substrate/stimulus/tracer D-Luciferin derivative (4 µM); settings: probe D-Luciferin derivative (4 µM), compound concentration 10 uM, read-out: % Inhibition of Control Values (Mean n=2)
Chain of MAO-B (amine oxidase [flavin-containing] B) (P27338 whole entry): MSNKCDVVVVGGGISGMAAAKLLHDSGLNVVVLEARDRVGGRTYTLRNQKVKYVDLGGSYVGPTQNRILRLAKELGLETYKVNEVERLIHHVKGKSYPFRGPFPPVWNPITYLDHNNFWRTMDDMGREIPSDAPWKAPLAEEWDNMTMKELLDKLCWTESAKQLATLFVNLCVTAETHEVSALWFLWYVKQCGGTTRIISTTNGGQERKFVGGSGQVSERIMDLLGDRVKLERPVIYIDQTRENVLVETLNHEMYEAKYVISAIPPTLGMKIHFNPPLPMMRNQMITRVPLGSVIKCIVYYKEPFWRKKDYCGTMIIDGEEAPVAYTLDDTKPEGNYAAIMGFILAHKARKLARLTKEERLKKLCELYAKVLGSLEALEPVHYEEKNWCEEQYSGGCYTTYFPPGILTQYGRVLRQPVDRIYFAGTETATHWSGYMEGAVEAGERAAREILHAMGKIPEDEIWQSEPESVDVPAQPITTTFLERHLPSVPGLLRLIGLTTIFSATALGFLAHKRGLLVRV

[5] = biological target: Adenosine receptor A2a (Homo sapiens) (UniProt P29274); assay: A2A (h) Eurofins-Cerep binding assay; design: ligand concentration 6 nM; settings: filed as agonist, Compound concentration 10.0 uM
[6] = biological target: T1, Alpha-1B adrenergic receptor (Homo sapiens) (UniProt P35368); assay: Alpha1B (h) Eurofins-Cerep binding assay; design: ligand concentration 0.15 nM; settings: filed as antagonist, Compound concentration 10.0 uM
T1 sequence (whole entry): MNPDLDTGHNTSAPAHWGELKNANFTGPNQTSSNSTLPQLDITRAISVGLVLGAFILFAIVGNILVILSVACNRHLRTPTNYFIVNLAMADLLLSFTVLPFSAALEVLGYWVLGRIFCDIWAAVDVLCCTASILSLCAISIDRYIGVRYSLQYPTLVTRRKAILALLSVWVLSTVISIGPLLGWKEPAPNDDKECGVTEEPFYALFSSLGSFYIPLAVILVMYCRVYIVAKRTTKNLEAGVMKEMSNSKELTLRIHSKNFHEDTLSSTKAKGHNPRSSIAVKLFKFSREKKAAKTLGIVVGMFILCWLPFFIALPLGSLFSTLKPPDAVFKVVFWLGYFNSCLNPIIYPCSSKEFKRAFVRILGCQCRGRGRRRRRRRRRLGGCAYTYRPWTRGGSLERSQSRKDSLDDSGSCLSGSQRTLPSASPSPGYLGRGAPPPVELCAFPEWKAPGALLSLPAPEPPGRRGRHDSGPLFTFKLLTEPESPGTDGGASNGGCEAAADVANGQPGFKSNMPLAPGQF

[7] = biological target: Cannabinoid receptor 1 (Homo sapiens) (UniProt P21554); assay: CB1 (h) Eurofins-Cerep binding assay; design: ligand concentration 0.5 nM; settings: filed as agonist, Compound concentration 10.0 uM
[8] = biological target: D(2) dopamine receptor (Homo sapiens) (UniProt P14416); assay: D2S (h) Eurofins-Cerep binding assay; design: ligand concentration 0.3 nM; settings: filed as antagonist, Compound concentration 10.0 uM
Chain of D(2) dopamine receptor (Homo sapiens) (P14416 whole entry): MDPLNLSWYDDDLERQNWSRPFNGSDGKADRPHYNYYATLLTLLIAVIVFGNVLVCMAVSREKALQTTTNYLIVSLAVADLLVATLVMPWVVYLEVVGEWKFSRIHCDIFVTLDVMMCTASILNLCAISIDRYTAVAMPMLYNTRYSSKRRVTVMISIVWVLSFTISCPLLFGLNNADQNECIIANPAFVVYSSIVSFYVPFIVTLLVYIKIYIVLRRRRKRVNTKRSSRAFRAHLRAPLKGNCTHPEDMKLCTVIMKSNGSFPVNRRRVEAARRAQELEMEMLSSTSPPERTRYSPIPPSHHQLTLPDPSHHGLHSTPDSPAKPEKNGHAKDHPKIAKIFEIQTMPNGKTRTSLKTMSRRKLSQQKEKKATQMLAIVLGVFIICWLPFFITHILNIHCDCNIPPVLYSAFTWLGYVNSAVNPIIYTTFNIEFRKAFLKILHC

[9] = biological target: Endothelin receptor type B (Homo sapiens) (UniProt P24530); assay: ETB (h) Eurofins-Cerep binding assay; design: ligand concentration 0.03 nM; settings: filed as agonist, Compound concentration 10.0 uM
Chain of Endothelin receptor type B (Homo sapiens) (P24530 whole entry): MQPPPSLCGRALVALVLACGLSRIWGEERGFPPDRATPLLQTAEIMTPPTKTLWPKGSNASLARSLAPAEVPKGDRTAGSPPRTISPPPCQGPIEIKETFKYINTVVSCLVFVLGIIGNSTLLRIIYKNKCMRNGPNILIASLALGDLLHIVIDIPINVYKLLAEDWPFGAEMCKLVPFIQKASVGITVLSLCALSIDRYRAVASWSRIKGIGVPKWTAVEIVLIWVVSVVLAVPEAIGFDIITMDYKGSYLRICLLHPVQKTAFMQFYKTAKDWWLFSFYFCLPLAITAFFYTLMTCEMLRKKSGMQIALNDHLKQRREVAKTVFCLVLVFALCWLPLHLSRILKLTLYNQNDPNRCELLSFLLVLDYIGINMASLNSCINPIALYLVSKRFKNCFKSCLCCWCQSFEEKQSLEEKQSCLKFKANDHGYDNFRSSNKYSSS

[10] = biological target: Histamine H1 receptor (Homo sapiens) (UniProt P35367); assay: H1 (h) Eurofins-Cerep binding assay; design: ligand concentration 1 nM; settings: filed as antagonist, Compound concentration 10.0 uM
[11] = biological target: Melatonin receptor type 1B (Homo sapiens) (UniProt P49286); assay: MT2 (ML1B) (h) Eurofins-Cerep binding assay; design: ligand concentration 0.05 nM; settings: filed as agonist, Compound concentration 10.0 uM
[12] = biological target: MAO-A (amine oxidase [flavin-containing] A) (Rattus norvegicus, UniProt P21396); assay: MAO-A Eurofins-Cerep binding assay; design: incubation time 60 min, incubation temperature 37°C, ligand concentration 10 nM; settings: rat cerebral cortex, probe [3H]Ro 41-1049 (10 nM), compound concentration 10 uM, read-out: % Inhibition of Control Specific Binding (Mean n=2)
Chain of MAO-A (amine oxidase [flavin-containing] A) (P21396 whole entry): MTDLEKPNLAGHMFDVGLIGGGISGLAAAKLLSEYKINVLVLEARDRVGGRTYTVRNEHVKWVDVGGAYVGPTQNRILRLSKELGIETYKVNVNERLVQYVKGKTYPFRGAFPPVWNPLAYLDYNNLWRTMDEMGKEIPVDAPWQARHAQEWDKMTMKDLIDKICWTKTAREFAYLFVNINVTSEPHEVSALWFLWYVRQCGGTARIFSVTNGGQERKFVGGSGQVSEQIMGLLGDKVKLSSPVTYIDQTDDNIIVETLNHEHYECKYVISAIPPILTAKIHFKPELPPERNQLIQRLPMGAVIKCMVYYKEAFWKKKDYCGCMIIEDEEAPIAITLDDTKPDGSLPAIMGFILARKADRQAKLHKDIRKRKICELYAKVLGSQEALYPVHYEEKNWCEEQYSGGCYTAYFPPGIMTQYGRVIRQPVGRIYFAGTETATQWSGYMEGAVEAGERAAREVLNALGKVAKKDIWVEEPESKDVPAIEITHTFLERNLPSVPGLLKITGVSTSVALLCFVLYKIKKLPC

[13] = biological target: Motilin receptor (Homo sapiens) (UniProt O43193); assay: motilin (h Eurofins-Cerep binding assay; design: ligand concentration 0.05 nM; settings: filed as agonist, Compound concentration 10.0 uM
[14] = biological target: Muscarinic acetylcholine receptor M1 (Homo sapiens) (UniProt P11229); assay: M1 (h) Eurofins-Cerep binding assay; design: ligand concentration 2 nM; settings: filed as antagonist, Compound concentration 10.0 uM
[15] = biological target: T2, Muscarinic acetylcholine receptor M2 (Homo sapiens) (UniProt P08172); assay: M2 (h) Eurofins-Cerep binding assay; design: ligand concentration 2 nM; settings: filed as antagonist, Compound concentration 10.0 uM
T2 sequence (whole entry): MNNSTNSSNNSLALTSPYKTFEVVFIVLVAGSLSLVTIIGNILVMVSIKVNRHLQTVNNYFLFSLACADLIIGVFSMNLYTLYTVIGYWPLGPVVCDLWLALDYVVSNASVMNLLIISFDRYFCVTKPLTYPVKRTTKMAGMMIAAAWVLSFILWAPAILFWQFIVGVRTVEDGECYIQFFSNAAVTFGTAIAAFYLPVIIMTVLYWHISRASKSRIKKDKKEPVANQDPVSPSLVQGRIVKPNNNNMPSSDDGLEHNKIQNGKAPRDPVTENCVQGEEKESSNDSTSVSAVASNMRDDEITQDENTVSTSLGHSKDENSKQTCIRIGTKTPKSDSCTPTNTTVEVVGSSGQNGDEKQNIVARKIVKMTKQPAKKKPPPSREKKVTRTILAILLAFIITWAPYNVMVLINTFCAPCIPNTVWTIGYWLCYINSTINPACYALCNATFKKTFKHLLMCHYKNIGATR

[16] = biological target: Delta-type opioid receptor (Homo sapiens, UniProt P41143); assay: delta (DOP) (h) Eurofins-Cerep binding assay; design: ligand concentration 0.5 nM; settings: filed as agonist, Compound concentration 10.0 uM
Chain of Delta-type opioid receptor (P41143 whole entry): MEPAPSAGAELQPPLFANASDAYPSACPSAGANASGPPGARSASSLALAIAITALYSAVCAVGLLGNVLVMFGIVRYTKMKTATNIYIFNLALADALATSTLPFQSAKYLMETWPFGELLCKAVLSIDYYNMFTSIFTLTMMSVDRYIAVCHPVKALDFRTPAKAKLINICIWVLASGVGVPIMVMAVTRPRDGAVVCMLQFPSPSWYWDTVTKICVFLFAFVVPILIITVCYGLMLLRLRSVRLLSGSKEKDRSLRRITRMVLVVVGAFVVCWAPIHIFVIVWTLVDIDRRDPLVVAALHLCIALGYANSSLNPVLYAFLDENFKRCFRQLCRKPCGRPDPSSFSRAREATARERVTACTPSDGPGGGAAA

[17] = biological target: Mu-type opioid receptor (Homo sapiens) (UniProt P35372); assay: mu (MOP) (h) Eurofins-Cerep binding assay; design: ligand concentration 0.5 nM; settings: filed as agonist, Compound concentration 10.0 uM
Chain of Mu-type opioid receptor (Homo sapiens) (P35372 whole entry): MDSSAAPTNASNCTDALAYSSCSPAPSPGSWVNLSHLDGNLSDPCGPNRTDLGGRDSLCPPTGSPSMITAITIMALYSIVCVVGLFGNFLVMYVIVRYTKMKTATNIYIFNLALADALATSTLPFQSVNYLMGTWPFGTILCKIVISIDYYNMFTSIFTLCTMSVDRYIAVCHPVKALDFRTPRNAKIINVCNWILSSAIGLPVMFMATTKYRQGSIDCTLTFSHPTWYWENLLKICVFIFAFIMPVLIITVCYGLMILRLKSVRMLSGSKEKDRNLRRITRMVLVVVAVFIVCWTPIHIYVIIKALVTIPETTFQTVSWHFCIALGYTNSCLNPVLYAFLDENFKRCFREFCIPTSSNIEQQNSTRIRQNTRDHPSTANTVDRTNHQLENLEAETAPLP

[18] = biological target: Glutamate NMDA receptor (Rattus norvegicus) (UniProt P35439+Q00959+Q00960+Q00961+Q62645+Q8VHN2+Q9R1M7); assay: PCP Eurofins-Cerep binding assay; assay type: protein-complex assay; design: ligand concentration 10 nM; settings: filed as antagonist, Compound concentration 10.0 uM
[19] = biological target: 5-hydroxytryptamine receptor 1B (Homo sapiens) (UniProt P28222); assay: 5-HT1B(h) Eurofins-Cerep binding assay; design: ligand concentration 1 nM; settings: filed as antagonist, Compound concentration 10.0 uM
Chain of 5-hydroxytryptamine receptor 1B (Homo sapiens) (P28222 whole entry): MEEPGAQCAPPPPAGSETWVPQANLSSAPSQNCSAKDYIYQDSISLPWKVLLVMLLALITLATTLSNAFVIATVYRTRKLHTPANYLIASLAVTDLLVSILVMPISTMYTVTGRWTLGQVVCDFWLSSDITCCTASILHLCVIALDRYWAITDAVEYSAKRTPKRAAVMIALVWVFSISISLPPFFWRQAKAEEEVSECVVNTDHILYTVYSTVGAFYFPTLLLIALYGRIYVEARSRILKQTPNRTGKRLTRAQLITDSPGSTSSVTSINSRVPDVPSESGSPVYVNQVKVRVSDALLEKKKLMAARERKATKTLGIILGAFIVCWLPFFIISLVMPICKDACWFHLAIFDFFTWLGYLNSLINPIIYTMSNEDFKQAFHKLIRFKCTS

[20] = biological target: 5-hydroxytryptamine receptor 7 (Homo sapiens) (UniProt P34969); assay: 5-HT7 (h) Eurofins-Cerep binding assay; design: ligand concentration 4 nM; settings: filed as agonist, Compound concentration 10.0 uM
Chain of 5-hydroxytryptamine receptor 7 (Homo sapiens) (P34969 whole entry): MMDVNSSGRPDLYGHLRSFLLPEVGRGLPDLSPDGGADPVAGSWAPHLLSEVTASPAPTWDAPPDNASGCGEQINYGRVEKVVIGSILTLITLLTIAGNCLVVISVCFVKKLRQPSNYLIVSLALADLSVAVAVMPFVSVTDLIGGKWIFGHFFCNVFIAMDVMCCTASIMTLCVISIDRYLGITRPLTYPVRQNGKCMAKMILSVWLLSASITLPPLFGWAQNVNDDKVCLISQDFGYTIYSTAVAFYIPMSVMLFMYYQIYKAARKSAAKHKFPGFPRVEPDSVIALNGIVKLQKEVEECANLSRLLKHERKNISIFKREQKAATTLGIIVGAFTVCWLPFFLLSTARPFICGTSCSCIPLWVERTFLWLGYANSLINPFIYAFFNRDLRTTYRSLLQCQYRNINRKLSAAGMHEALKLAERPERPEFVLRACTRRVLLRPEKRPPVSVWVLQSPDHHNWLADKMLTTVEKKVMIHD

[21] = biological target: Glucocorticoid receptor (Homo sapiens) (UniProt P04150); assay: GR (h) Eurofins-Cerep binding assay; design: ligand concentration 1.5 nM; settings: filed as agonist, Compound concentration 10.0 uM
[22] = biological target: Estrogen receptor (Homo sapiens) (UniProt P03372); assay: Estrogen ER alpha (h) Eurofins-Cerep binding assay; design: ligand concentration 0.5 nM; settings: filed as agonist, Compound concentration 10.0 uM
[23] = biological target: Urotensin-2 receptor (Homo sapiens) (UniProt Q9UKP6); assay: UT (h) Eurofins-Cerep binding assay; design: ligand concentration 0.1 nM; settings: filed as agonist, Compound concentration 10.0 uM
Chain of Urotensin-2 receptor (Homo sapiens) (Q9UKP6 whole entry): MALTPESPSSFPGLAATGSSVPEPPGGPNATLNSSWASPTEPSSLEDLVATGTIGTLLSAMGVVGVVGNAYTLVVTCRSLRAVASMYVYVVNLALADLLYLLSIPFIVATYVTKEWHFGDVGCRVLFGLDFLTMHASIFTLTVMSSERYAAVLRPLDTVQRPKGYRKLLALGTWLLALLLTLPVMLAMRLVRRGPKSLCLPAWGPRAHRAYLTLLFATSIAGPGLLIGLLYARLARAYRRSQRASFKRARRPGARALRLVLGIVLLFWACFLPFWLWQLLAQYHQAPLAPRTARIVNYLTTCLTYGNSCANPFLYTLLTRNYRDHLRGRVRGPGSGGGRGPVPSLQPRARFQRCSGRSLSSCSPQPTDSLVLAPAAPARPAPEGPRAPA

[24] = biological target: Vasoactive intestinal polypeptide receptor 1 (Homo sapiens) (UniProt P32241); assay: VPAC1 (VIP1) (h) Eurofins-Cerep binding assay; design: ligand concentration 0.04 nM; settings: filed as agonist, Compound concentration 10.0 uM
Chain of Vasoactive intestinal polypeptide receptor 1 (Homo sapiens) (P32241 whole entry): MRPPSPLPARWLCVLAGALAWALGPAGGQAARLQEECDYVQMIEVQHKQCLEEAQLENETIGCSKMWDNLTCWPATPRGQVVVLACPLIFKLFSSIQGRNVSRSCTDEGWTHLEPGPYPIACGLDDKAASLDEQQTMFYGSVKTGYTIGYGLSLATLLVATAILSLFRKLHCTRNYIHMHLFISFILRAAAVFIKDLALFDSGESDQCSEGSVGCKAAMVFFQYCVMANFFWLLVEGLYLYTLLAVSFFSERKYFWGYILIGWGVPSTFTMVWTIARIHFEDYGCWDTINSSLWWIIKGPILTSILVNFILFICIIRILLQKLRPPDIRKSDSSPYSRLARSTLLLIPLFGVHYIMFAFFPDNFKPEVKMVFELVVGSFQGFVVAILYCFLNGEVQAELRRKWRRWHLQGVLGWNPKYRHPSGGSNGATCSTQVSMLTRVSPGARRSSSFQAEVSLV

[25] = biological target: Vasopressin V1a receptor (Homo sapiens) (UniProt P37288); assay: V1 a (h) Eurofins-Cerep binding assay; design: ligand concentration 0.3 nM; settings: filed as agonist, Compound concentration 10.0 uM
[26] = biological target: L-type Ca2+ channel (dihydropyridine site) (Rattus norvegicus, UniProt P22002+P27732+Q02485); assay: Ca2+ channel (L, dihydropyridine site) Eurofins-Cerep binding assay; assay type: protein assay; design: incubation time 90 min, incubation temperature RT, ligand concentration 0.1 nM; settings: rat cerebral cortex, probe [3H]nitrendipine (0.1 nM), compound concentration 10 uM, read-out: % Inhibition of Control Specific Binding (Mean n=2)
[27] = biological target: Sulfonylurea receptors; K-ATP channels (Rattus norvegicus) (UniProt Q63563+P70673+Q63664+Q09429); assay: KATP channel Eurofins-Cerep binding assay; assay type: protein-complex assay; design: ligand concentration 0.1 nM; settings: filed as antagonist, Compound concentration 10.0 uM
[28] = biological target: voltage-gated Na+ channel (site 2) (Rattus norvegicus, UniProt F1LQQ7+O08562+O88420+O88457+P04774+P04775+P08104+P15389+P15390+Q62968); assay: Na+ channel (site 2) Eurofins-Cerep binding assay; assay type: protein assay; design: incubation time 60 min, incubation temperature 37°C, ligand concentration 10 nM; settings: rat cerebral cortex, probe [3H]batrachotoxin (10 nM), compound concentration 10 uM, read-out: % Inhibition of Control Specific Binding (Mean n=2)

Chain of Apoptosis regulator Bcl-2 (P10415 whole entry): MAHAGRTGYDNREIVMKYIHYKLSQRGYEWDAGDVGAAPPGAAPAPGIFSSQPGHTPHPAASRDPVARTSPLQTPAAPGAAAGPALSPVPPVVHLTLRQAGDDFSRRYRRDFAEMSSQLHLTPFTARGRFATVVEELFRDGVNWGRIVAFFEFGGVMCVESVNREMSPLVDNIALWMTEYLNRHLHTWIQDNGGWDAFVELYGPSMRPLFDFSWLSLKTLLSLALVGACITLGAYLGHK

Row | SMILES | IC50 [1] | % Inhibition of Control Values (Mean n=2) [2] | % Inhibition of Control Values (Mean n=2) [3] | inhibition at 60 min, 10 µM [4] | % Inhibition of Control Specific Binding (Mean n=2) [5] | % Inhibition of Control Specific Binding (Mean n=2) [6] | % Inhibition of Control Specific Binding (Mean n=2) [7] | % Inhibition of Control Specific Binding (Mean n=2) [8] | % Inhibition of Control Specific Binding (Mean n=2) [9] | % Inhibition of Control Specific Binding (Mean n=2) [10] | % Inhibition of Control Specific Binding (Mean n=2) [11] | inhibition at 60 min, 10 µM [12] | % Inhibition of Control Specific Binding (Mean n=2) [13] | % Inhibition of Control Specific Binding (Mean n=2) [14] | % Inhibition of Control Specific Binding (Mean n=2) [15] | % Inhibition of Control Specific Binding (Mean n=2) [16] | % Inhibition of Control Specific Binding (Mean n=2) [17] | % Inhibition of Control Specific Binding (Mean n=2) [18] | % Inhibition of Control Specific Binding (Mean n=2) [19] | % Inhibition of Control Specific Binding (Mean n=2) [20] | also measured
1 | CN(C)CC#Cc1ccc(OCCCc2sc(N3CCc4cccc(C(=O)Nc5nc6ccccc6s5)c4C3)nc2C(=O)O)c(F)c1 [A-1155463] | 382 nM (not active) | 39.5% | -17.3% | -2.2% | 51.8% | 15.5% | 2.6% | 27.1% | 9.6% | 69.2% | 20.1% | 74.5% | -21.6% | 19.1% | 28.6% | 77.9% | 36.1% | 7.8% | -7.1% | 16.9% | % Inhibition of Control Specific Binding (Mean n=2) [21]: 37.8%; % Inhibition of Control Specific Binding (Mean n=2) [22]: 11.9%; % Inhibition of Control Specific Binding (Mean n=2) [23]: 94.9%; % Inhibition of Control Specific Binding (Mean n=2) [24]: -8.1%; % Inhibition of Control Specific Binding (Mean n=2) [25]: 5.3%; inhibition at 90 min, 10 µM [26]: -21.8%; % Inhibition of Control Specific Binding (Mean n=2) [27]: 27.4%; inhibition at 60 min, 10 µM [28]: 32.3%
2 | O=C(Nc1nc2ccccc2s1)c1cccc2c1CN(c1nc(C(=O)O)c(CCOc3ccc(-n4ncc5cncnc54)cc3)s1)CC2 [A-1107969] | 3780 nM (not active) | 68.2% | -7.5% | -2% | 28.3% | -4.7% | -4.1% | 13.5% | 0.8% | -9.3% | 8.7% | 11.1% | 2.2% | -1.6% | -7.3% | -1.8% | 6% | 2.8% | -39.6% | 11.4% | % Inhibition of Control Specific Binding (Mean n=2) [21]: 55.4%; % Inhibition of Control Specific Binding (Mean n=2) [22]: 8.4%; % Inhibition of Control Specific Binding (Mean n=2) [23]: 62.2%; % Inhibition of Control Specific Binding (Mean n=2) [24]: -8.2%; % Inhibition of Control Specific Binding (Mean n=2) [25]: 4.8%; inhibition at 90 min, 10 µM [26]: -2.2%; % Inhibition of Control Specific Binding (Mean n=2) [27]: 15.8%; inhibition at 60 min, 10 µM [28]: 3.3%
